From patent publication US20220370366A1, “TABLETS CONTAINING CILOFEXOR AND PHARMACEUTICALLY ACCEPTABLE CARRIERS” (Gilead Sciences, Inc., priority 2019, published 2022)

What was measured:
[1] = Single dose PK (AUCinf) in Phase 1 studies, effect of drug load on Compound 1 exposure and variability; assay type: in vivo, human; settings: for AUC(0-inf): human, in vivo, oral, fasted, healthy volunteers, read-out: Mean (% CV) Compound 1 AUCinf
Source text: Part A: prespecified cohorts (Cohorts 1-3): Randomized, partially blind, placebo-controlled, single- and multiple-doses with staggered dose-escalations. 60 unique subjects; 15 per cohort (12 Compound 1, 3 placebo-to-match (“PTM”))
Part A (Single- and Multiple-Ascending Doses, Pre-Specified Cohorts) proceeded in 4 staggered, pre-specified, dose-escalation cohorts and were governed by study specific stopping criteria. Within each cohort, 15 unique subjects were randomized 4:1 to receive blinded Compound 1 (N=12) or PTM (N=3). All study drugs in Part A were administered in a fasted state. Within each cohort, dose escalation from single-dose (Period 1) to multiple-dose (Period 2) were permitted after evaluation of cumulative blinded safety data up to and through Day 3 of the same cohort.
Fasted State Dosing: Study drug(s) were administered at approximately the same time each day following an overnight fast (no food or drinks except water, for at least 10 hours). Subjects continued to fast until after collection of the 2-hour PK sample, relative to study drug dosing.
(§1) Treatment A: Single dose of SEL 18 mg (1×18 mg tablet)+Compound 1 30 mg (1×30 mg tablet) coadministered orally in the morning within 5 minutes of completing a high-fat meal Treatment C: Single dose of Compound 1 30 mg (1×30 mg tablet) administered orally in the morning in the fasted state
(§2) Fasted Administration (Treatment C): Study drug(s) were administered in the morning following an overnight fast (no food or drinks except water for at least 10 hours). Subjects continued to fast until after collection of the 4-hour PK sample, relative to (first) study drug dosing. Additionally, subjects were restricted from water consumption 1 hour before until 2 hours after each study drug dosing, except for the 240 mL given with each study drug administration. Water may be consumed by subjects following the 2-hour blood draw for the remainder of the collection period. A meal (standardized lunch) was provided to subjects after the 4 hour postdose blood draw.
Eligible subjects received the following treatment: Single dose of 100 mg Compound 1 (1×100 mg tablet), administered orally in the morning on Day 1 following an overnight fast.
Each dose of study drug was administered in the morning on Day 1 with 240 mL of still (non-carbonated) water following an overnight fast (no food or drinks except water, for at least 10 hours). Subjects continued to fast and were restricted from food intake until after collection of the 4-hour blood draw. Additionally, subjects were restricted from consumption of water or other fluids 1 hour before until 2 hours after dosing, except for the 240 mL given with the study treatment.
Cohort 10 (Compound 1 100 mg, formulation 9 in Table 3):
Treatment F: Single dose of Compound 1 (1×100 mg tablet) administered orally in the morning in the fasted state.
(§3) Compound 1 was administered in the morning following an overnight fast (no food or drinks except water for at least 10 hours). Subjects continued to fast until after collection of the 4-hour PK sample, relative to the (first) study drug dosing. Additionally, subjects were restricted from water consumption 1 hour before until 2 hours after each study drug dosing, except for the 240 mL given with each study drug administration. Water was optionally consumed by subjects following the 2-hour blood draw for the remainder of the collection period. A meal (standardized lunch) is provided to subjects after the 4-hour post-dose blood draw.
Single dose pharmacokinetic exposure parameters (AUCinf) of Compound 1 from multiple Phase 1 studies in healthy volunteers which utilized various drug loads of Compound 1 were compared to determine if Compound 1 drug load impacted the variability and/or absolute value of Compound 1 systemic exposure.

[2] = Single dose PK (AUCinf) in Phase 1 studies, effect of meal type on Compound 1 exposure and variability; assay type: in vivo, human; settings: for AUC(0-inf): human, in vivo, oral
Method: Part B (Adaptive Cohorts) is as follows: Based on available safety, pharmacokinetic (“PK”), and/or pharmacodynamic (“PD”) data from Part A, total daily doses for Part B (Cohorts 5 and 8) were chosen between 1 and 600 mg as well as frequency of dosing (once daily or twice a day) and meal conditions for dosing (fasted, low fat, moderate fat, or high fat meal). Once determined, dose level, frequency of dosing, and meal conditions were consistent within a cohort.
Fed State Dosing: Study drug(s) were administered at approximately the same time each day and within 5 minutes of completing a standardized meal. The meal was initiated 30 minutes prior to study drug administration. Subjects fasted until after collection of the 4-hour PK sample, relative to study drug dosing. Meal fat content (low fat, moderate fat, or high fat) was determined based on available data from […] cohorts.
as §1
Treatment I: Single dose of Compound 1 30 mg (1×30 mg tablet) administered orally in the morning within 5 minutes of completing a light meal
as §2
Light Meal Administration (Treatment I): Study drug(s) were administered with food and with 240 mL of water. Following an overnight fast (no food or drinks except water for at least 10 hours), a meal was initiated 30 minutes prior to study drug administration. The dose was administered at or within 5 minutes of the subjects completing (100%) of the provided light meal containing ˜400 kcal with ˜20% of the calories from fat. Subjects fasted for 4 hours after study drug administration. A meal (standardized lunch) was provided to subjects after the 4-hour post-dose blood draw. Additionally, water and other fluids was withheld 1 hour before until 2-hours after dose administration other than the water provided with dosing and beverages provided with the standardized meal (where applicable). Water may be consumed by subjects following the 2-hour blood draw for the remainder of the collection period.
High-Fat Meal Administration (Treatment A): Study drug(s) were administered with food and with 240 mL of water. Following an overnight fast (no food or drinks except water for at least 10 hours), a meal was initiated 30 minutes prior to study drug administration. The dose was administered at or within 5 minutes of the subjects completing (100%) of the provided high-fat meal containing ˜800-1000 kcal with -50% of calories from fat (approximately 150, 250, and 500-600 kcal from protein, carbohydrate, and fat, respectively). Subjects fasted for 4 hours after study drug administration. A meal (standardized lunch) was provided to subjects after the 4-hour post-dose blood draw. Additionally, water and other fluids was withheld 1 hour before until 2 hours after dose administration other than the water provided with dosing and beverages provided with the standardized meal (where applicable). Water may be consumed by subjects following the 2-hour blood draw for the remainder of the collection period.
Cohort 10 (Compound 1 100 mg, formulation 9 in Table 3): […]

[3] = Effect of acid-reducing agent (famotidine) on PK of Compound 1 single agent tablet, Cohort 11; assay type: in vivo, human; settings: for AUC(0-inf): human, in vivo, oral, fasted, N=20
Method: The objective of Cohort 11 was to assess the effect of gastric acid reducing agents (ARAs) on the PK of Compound 1 single agent tablet using famotidine, a representative H2RA. Compound 1 100 mg strength tablets (as free form equivalent) were used. Famotidine was obtained from a commercially available source.
Treatment J: Single dose of Compound 1 (1×100 mg tablet) administered orally in the morning in the fasted state.
Treatment K: Single dose of Compound 1 (1×100 mg tablet) administered orally in the morning 2 hours after famotidine (FAM) (1×40 mg) in the fasted state.
as §3, with “Study drug(s) were” for “Compound 1 was”, “period.” for “period. A meal (standardized lunch) is provided to subjects after the 4-hour post-dose blood draw.”

[4] = in the drug product, Form I
[5] = drug loads such as 5% and 8% compared to 20% drug load

## O=C(O)c1ccnc(N2CC(O)(c3ccc(OCc4c(-c5c(Cl)cccc5Cl)noc4C4CC4)cc3Cl)C2)c1 [Compound 1, cilofexor]
[1]; [5]
  Compound 1 exposure: increased Compound 1 exposure
  Variability of Compound 1 exposure: reduction in variability
[1]; 30 mg, 30 mg single dose, 5% drug load
  AUC(0-inf): 2470 ng·h/mL
[1]; 30 mg, 30 mg single dose, 20% drug load
  AUC(0-inf): 1870 ng·h/mL
[1]; 100 mg, 100 mg single dose, 8% drug load
  AUC(0-inf): 7480 ng·h/mL
[1]; 100 mg, 100 mg single dose, 12% drug load
  AUC(0-inf): 7650 ng·h/mL
[1]; 100 mg, 100 mg single dose, 20% drug load
  AUC(0-inf): 7740 ng·h/mL
[2]; 10 mg (5% drug load), AUCinf moderate-fat meal vs fasted
  % GLSM Ratio (90% CI): 74.9%
[2]; 30 mg (20% drug load), AUCinf high-fat meal (+ SEL 18 mg) vs fasted
  % GLSM Ratio (90% CI): 142%
[2]; 30 mg (20% drug load), AUCinf light-fat meal vs fasted
  % GLSM Ratio (90% CI): 37.5%
[2]; 100 mg (12% drug load), AUCinf high-fat meal vs fasted
  % GLSM Ratio (90% CI): 91.9%
[2]; 100 mg (12% drug load), AUCinf light-fat meal vs fasted
  % GLSM Ratio (90% CI): 65.7%
[2]; 100 mg (20% drug load), AUCinf moderate-fat meal vs fasted
  % GLSM Ratio (90% CI): 76.6%
[2]; high-fat meal
  Effect of food on Compound 1 exposure: increasing
[2]; 10 mg, 10 mg (5% drug load), fasted, N=12, read-out: Compound 1 AUCinf (% CV) Fasted
  AUC(0-inf): 1260 ng·h/mL
[2]; 10 mg, 10 mg (5% drug load), moderate-fat meal, N=11, read-out: Compound 1 AUCinf (% CV) Fed
  AUC(0-inf): 924 ng·h/mL
[2]; 30 mg (20% drug load), high-fat meal, + SEL 18 mg, N=20, read-out: Compound 1 AUCinf (% CV) Fed
  AUC(0-inf): 1920 ng·h/mL
[2]; 30 mg, 30 mg (20% drug load), fasted, N=20, read-out: Compound 1 AUCinf (% CV) Fasted
  AUC(0-inf): 1870 ng·h/mL
[2]; 30 mg, 30 mg (20% drug load), light-fat meal, N=30, read-out: Compound 1 AUCinf (% CV) Fed
  AUC(0-inf): 608 ng·h/mL
[2]; 100 mg, 100 mg (12% drug load), fasted, N=20, read-out: Compound 1 AUCinf (% CV) Fasted
  AUC(0-inf): 7650 ng·h/mL
[2]; 100 mg, 100 mg (12% drug load), high-fat meal, N=20, read-out: Compound 1 AUCinf (% CV) Fed
  AUC(0-inf): 5930 ng·h/mL
[2]; 100 mg, 100 mg (12% drug load), light-fat meal, N=20, read-out: Compound 1 AUCinf (% CV) Fed
  AUC(0-inf): 4170 ng·h/mL
[2]; 100 mg, 100 mg (20% drug load), fasted, N=12, read-out: Compound 1 AUCinf (% CV) Fasted
  AUC(0-inf): 7740 ng·h/mL
[2]; 100 mg, 100 mg (20% drug load), moderate-fat meal, N=12, read-out: Compound 1 AUCinf (% CV) Fed
  AUC(0-inf): 5020 ng·h/mL
[2]; light-fat and moderate-fat meals
  Effect of food on Compound 1 exposure: reducing
[2]; light-fat meal
  Variability of Compound 1 exposure: did not reduce variability
[2]; moderate- and high-fat meals compared to fasted administration, irrespective of % drug load
  Variability of Compound 1 exposure: reduced the variability
[2]; subjects with low exposure fasted or with light-fat meal vs subjects with high exposure
  Paired comparison of Compound 1 exposure, percent change with high-fat meal: greater percent increases in exposure
[3]; 100 mg (12% drug load), AUCinf with famotidine vs alone
  % GLSM Ratio (90% CI): 320 (263, 390) %
[3]; administered two hours after famotidine, 12% drug load
  Bioavailability of Compound 1 with famotidine pre-treatment: increase in bioavailability
[3]; 100 mg (12% drug load), 2 hours after famotidine 40 mg, read-out: Compound 1 AUCinf (% CV) with Famotidine (Test)
  AUC(0-inf): 13600 ng·h/mL
[3]; 100 mg (12% drug load), read-out: Compound 1 AUCinf (% CV) Alone (Reference)
  AUC(0-inf): 4490 ng·h/mL

## NC(CO)(CO)CO.O=C(O)c1ccnc(N2CC(O)(c3ccc(OCc4c(-c5c(Cl)cccc5Cl)noc4C4CC4)cc3Cl)C2)c1 [tromethamine salt of Compound 1]
[4]
  Chemical and physical stability: suitable chemical and physical stability
